# Paper PMC7552967, “Anti-Melanoma Activities of Artemisone and Prenylated Amino-Artemisinins in Combination With Known Anticancer Drugs” (Frontiers in Pharmacology, 2020)
# Experiments:
# A375 melanoma cells [1] = assay: Intracellular ROS, DCFH-DA assay, A375; assay type: cell-based, human; conditions: A375, 12 h treatment; result in words
# Method: HaCat and A375 cells were seeded at 25,000 cells/well in 96-well plates (Black plate, Clear bottom, Corning, Costar®, NY, USA) and incubated until cells were ~90% confluent. Serum-free DMEM without phenol red (Thermo Fisher Scientific, Gibco, Carlsbad, CA, USA) was used for all experiments. Cells were exposed to compounds or H2O2 (500 µM) for 12 h. Cell staining with ROS fluorescent indicator 2’,7’-dichlorodihydrofluorescein diacetate (DCFH-DA) was performed 1.5 h before the end of the 12-h exposure time. A kinetic analysis was then performed at 37°C using a microplate reader (SpectraMax® ParadigmTM Molecular Devices, Sunnyvale, CA, USA) by measuring the DCF fluorescence (excitation 485 nm and emission 535 nm) every 10 min for 1 h. […] The Bradford assay (Coomassie blue colorimetric method) was then performed in order to determine the relative amount of protein per well, as an indication of cell number per well, and all fluorescence measurements were normalized relative to the cell number. The background fluorescence produced by blank medium controls and unstained but treated cell controls were subtracted from DCFH-DA stained cells. The DCF fluorescence measured at the beginning of the analysis (time 0) was subtracted from the DCF fluorescence at the indicated times for the kinetic analysis (results not shown). […]
# The levels of intracellular ROS were determined using the DCFH-DA assay. […]
# A375 melanoma cells [2] = assay: FITC Annexin V/PI flow cytometry, A375; assay type: cell-based, human; conditions: A375, 24 h
# Method: The FITC Annexin V apoptosis detection kit I (BD Pharmigen™, BD Biosciences, San Jose, CA, USA) was used for the detection of apoptosis using flow cytometry. FITC Annexin V emits green fluorescence which indicates apoptosis, whereas propidium iodide (PI) emits red fluorescence and stains dead cells ([Vermes et al., 1995]). The assay was performed according to the manufacturer’s instructions with minor alterations. In brief, cells were seeded in a 96-well plate and grown to ~90% confluence. The cells were exposed to amounts of the prenylated piperazine derivatives and combinations with elesclomol-Cu(II) 1-Cu corresponding to the IC50 values. […] After incubation, 100 µl 1X binding buffer was added to each tube and then analyzed using the BD FACSVerse™ and BD FACSuite™ Software. […] At least 10,000 cellular events were analyzed for each sample. A logarithmic amplification scale was employed and events plotted on forward scatter (FSC), side scatter (SSC), green fluorescence (FL1) and red fluorescence (FL2). […]
# Flow cytometry was employed to establish if the observed decrease in cell viability in melanoma cells was of necrotic or apoptotic origin. Cultured melanoma and keratinocyte cells were exposed to predetermined IC50 concentrations of the prenylated piperazine-DHA derivatives and analyzed using the FITC Annexin V/PI flow cytometry assay. […]
# Figure 8 Apoptosis measured by FITC Annexin V/PI assay. […]
Structure (SMILES),Intracellular ROS (DCF fluorescence fold change vs untreated control) (A375 melanoma cells [1]),Late apoptosis/necrosis (FITC-Annexin V positive and PI positive) (A375 melanoma cells [2]; 45 µM) [%],"Cells undergoing apoptosis (A375 melanoma cells [2]; IC50 concentrations (6 45 µM, 7 30 µM, 1-Cu 2 nM; combinations 1:1)) [%]"
"CC(C)=CCC/C(C)=C/CN1CCN([C@@H]2O[C@@H]3O[C@@]4(C)CC[C@H]5[C@H](C)CC[C@@H]([C@H]2C)[C@@]35OO4)CC1 [Geranylpiperazine-DHA 6, geranylpiperazine-DHA]",not significantly higher when compared to the untreated control,37.7 ± 2.1,–
"CC(C)=CCC/C(C)=C/CC/C(C)=C/CN1CCN([C@@H]2O[C@@H]3O[C@@]4(C)CC[C@H]5[C@H](C)CC[C@@H]([C@H]2C)[C@@]35OO4)CC1 [Farnesylpiperazine-DHA 7, farnesylpiperazine-DHA]",not significantly higher than the untreated control,–,30.5 ± 3.7
